Measurements from PubChem BioAssay (NCI).
Where “and” joins values, the source holds several entries; their conditions need not be identical. Equal entries are not always repeated.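 Where inhibition never reached the appropriate level, the endpoint shown equals the highest concentration tested. Otherwise, values were interpolated linearly from a five-concentration, 48-hour dose response in 96-well plates. GI50 is the concentration that inhibits growth by half. TGI denotes the concentration required for complete inhibition of growth.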

Columns and labels:
Experiment in all cases: DTP human tumour cell line panel, 48 h
CCRF-CEM leukemia = system: CCRF-CEM leukemia
EKVX NSCLC = system: EKVX NSCLC
HCT-15 colon = system: HCT-15 colon
LOX IMVI melanoma = system: LOX IMVI melanoma
MALME-3M melanoma = system: MALME-3M melanoma
MDA-MB-231 breast = system: MDA-MB-231 breast
OVCAR-3 ovarian = system: OVCAR-3 ovarian
OVCAR-4 ovarian = system: OVCAR-4 ovarian
SK-MEL-28 melanoma = system: SK-MEL-28 melanoma
T-47D breast = system: T-47D breast

Row | Structure (SMILES) | GI50 (CCRF-CEM leukemia) [µM] | TGI (CCRF-CEM leukemia) | GI50 (EKVX NSCLC) [µM] | TGI (EKVX NSCLC) [µM] | GI50 (HCT-15 colon) [µM] | TGI (HCT-15 colon) [µM] | GI50 (LOX IMVI melanoma) [µM] | TGI (LOX IMVI melanoma) [µM] | GI50 (MALME-3M melanoma) [µM] | TGI (MALME-3M melanoma) [µM] | GI50 (MDA-MB-231 breast) [µM] | TGI (MDA-MB-231 breast) [µM] | GI50 (OVCAR-3 ovarian) [µM] | TGI (OVCAR-3 ovarian) [µM] | GI50 (OVCAR-4 ovarian) [µM] | TGI (OVCAR-4 ovarian) [µM] | GI50 (SK-MEL-28 melanoma) [µM] | TGI (SK-MEL-28 melanoma) [µM] | GI50 (T-47D breast) [µM] | TGI (T-47D breast) [µM]
1 | COc1ccc(-c2nc3c(c(=O)n2C(C)=O)C(c2ccc(Cl)cc2)c2sc4c(Cl)cccc4c2O3)cc1 (stereo not given) | 0.462 | 6.28 µM | 0.71 | 4.74 | 0.301 | 1.66 | 0.504 | 1.84 | 0.409 | 2.62 | 0.589 | 2.43 | 0.383 | 1.85 | 0.845 | 3.66 | 1.15 | 3.39 | 0.326 | 2.2
2 | Cc1cc(NC(=O)NC(=O)c2ccccc2N(C)C)ccc1Oc1ncc(Br)cn1 |  | 3.5 µM and 11.8 µM |  | > 68.1 |  | > 68.1 | 0.582 | > 63.1 | 2.22 | > 100 |  | 52.5 |  | 11.1 | 3.45 | > 68.1 |  | > 63.1 |  | > 56.2
3 | CCOCNc1ccc(N2C(=O)/C(=C/c3ccc(N(CC)CC)cc3)N=C2c2ccccc2)cc1 | 3.55 | > 100 µM | > 100 | > 100 | 1.06 | > 100 | 2.48 | > 100 | 24.8 | > 100 | 13 | 49.3 | 28.3 | > 100 | > 100 | > 100 | > 100 | > 100 | 84 | > 100
4 | C/C(=N\n1c(N)c(C#N)c(-c2ccc(Cl)cc2)c(C#N)c1=O)c1ccncc1 | > 100 | > 100 µM | 6.13 | > 100 | 58.2 | > 100 | 35.4 | > 100 | 7.54 | > 100 | 12.6 | 44.2 | 3.7 | 21.5 | 11.1 | 43.6 | 56.8 | > 100 | 7.81 | 85.3
5 | COc1ccc(NC(=O)c2sc3nc4c(cc3c2N)CCCC4)cc1 | 0.322 | > 100 µM | 1.13 | > 100 | 0.471 | > 100 | 0.686 | > 100 |  |  | 5.26 | > 100 | 0.336 | 3.19 | 1.98 | > 100 | 15.2 | > 100 | 0.547 | 96.9
6 | COc1ccc(C(=O)C[C@]2(O)C(=O)Nc3c(Cl)ccc(Cl)c32)cc1 | 0.563 | > 100 µM | 0.892 | > 100 | 0.35 | > 100 | 0.581 | > 100 | 0.503 | > 100 | 0.801 | > 100 | 0.348 | 7.19 | 12 | > 100 | 6.54 | > 100 | 0.498 | > 100
7 | Cc1n(Cc2ccc3ccccc3c2)c(Cl)c(Cl)[n+]1Cc1ccc2ccccc2c1 | 1.96 | 6.05 µM | 2.4 | 8.01 | 2.29 | 6.52 | 1.6 | 2.95 | 1.54 | 3.46 | 1.59 | 3.09 | 1.44 | 2.87 | 1.39 | 2.76 | 1.68 | 3.18 | 2.05 | 6.44
8 | c1ccc(CC(NCCNC(Cc2ccccc2)c2ccccc2)c2ccccc2)cc1 (stereo not given) | 0.49 | 2.57 µM | 0.482 | 3.17 | 0.463 | 1.64 | 0.185 | 0.375 | 0.339 | 1.44 | 0.331 | 1.24 | 0.398 | 1.46 | 0.415 | 2.02 | 1.22 | 2.8 | 0.243 | 0.693
9 | O=C(Cc1ccc(/C=C/C(=O)c2ncc[nH]2)cc1)Nc1ccc(C(F)(F)F)cc1 | 1.55 | > 33.3 µM | 5.57 | 14.6 | 1.04 | 4.79 | 0.469 | 1.02 | 5.18 | 12.9 | 2.79 | 8.55 | 1.09 | 3.35 | 5.12 | 22.1 | 5.32 | 11.1 | 3.97 | 12.3
10 | COC(=O)[C@H](Cc1ccccc1)NC(=O)c1csc([C@@H](C[C@H](C(C)C)N(C)C(=O)[C@@H](NC(=O)[C@H]2CCCN2C)C2CC2)OC(C)=O)n1 | 0.166 | > 33.3 µM | 1.97 | > 33.3 | 0.855 | > 33.3 | 0.301 | > 33.3 | 5.49 | > 33.3 | 0.577 | > 12.9 |  |  | 3.98 | > 33.3 | 2.48 | > 33.3 | > 7.36 | > 33.3
11 | COc1ccccc1/C=C\C(=O)c1ccccc1 | 3.28 | > 100 µM | 3.82 | 18.3 | 4.8 | 19.3 | 2.93 | 8.79 | 12.9 | 26.2 | 12.5 | 30 | 7.43 | 19.3 | 4.31 | 17.1 |  |  | 5.44 | 20
12 | NC(N)=N/N=C/c1c(-c2ccc(Cl)c([N+](=O)[O-])c2)nc2n1CCS2 | 2.6 | 9.93 µM | 12.7 | 26.3 | 23.1 | 67.3 | 2.43 | 7.09 |  |  | 2.88 | 8.86 | 1.93 | 3.91 | 14.7 | 32.8 | 16.6 | 35.5 | 21.6 | 50.2
